Measurements reported in article PMC7759869 (Biomedicines, 2020).
Like-named read-outs stand apart in the source and are kept apart here. Marks after values point to notes of the source that are not given here.

Columns and labels:
[1] = biological target: cabozantinib oxidation in pooled human liver microsomes (Homo sapiens, UniProt P08684); assay: Inhibition study: effect of CYP inhibitors on cabozantinib oxidation in pooled human liver microsomes; conditions: pooled human liver microsomes, 50 µM cabozantinib
cabozantinib oxidation in pooled human liver microsomes, sequence (P08684 2-503): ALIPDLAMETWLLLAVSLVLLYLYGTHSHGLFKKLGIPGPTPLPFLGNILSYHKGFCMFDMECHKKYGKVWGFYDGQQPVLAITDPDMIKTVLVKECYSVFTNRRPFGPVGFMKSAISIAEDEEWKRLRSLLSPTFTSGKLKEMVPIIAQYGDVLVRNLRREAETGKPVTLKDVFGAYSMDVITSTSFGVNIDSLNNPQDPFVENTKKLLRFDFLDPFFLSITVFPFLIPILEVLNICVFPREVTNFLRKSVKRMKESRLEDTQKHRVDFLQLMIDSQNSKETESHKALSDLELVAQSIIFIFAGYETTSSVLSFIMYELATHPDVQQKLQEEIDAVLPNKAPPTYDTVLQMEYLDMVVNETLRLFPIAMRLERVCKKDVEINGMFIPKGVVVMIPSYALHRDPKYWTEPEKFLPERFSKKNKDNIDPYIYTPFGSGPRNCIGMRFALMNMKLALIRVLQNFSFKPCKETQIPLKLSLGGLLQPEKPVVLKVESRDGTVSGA
Protocol: (§1) Inhibition studies in pooled human liver microsomes were conducted with six inhibitors. […] The IC50 values for employed inhibitors were determined by the procedure described previously. […] Then, mixtures were incubated for a further 20 min at 37 °C.

[2] = tested on: human liver microsomes; assay: Oxidation of cabozantinib by hepatic microsomes of individual human donors (HPLC of metabolites); format: in vitro ADME; conditions: 50 µM cabozantinib, 20 min
Text: (§2) Cabozantinib was from MedChemExpress (Monmouth Junction, NJ, USA). Standard of cabozantinib N-oxide was purchased from Toronto Research Chemicals (Toronto, Canada). Ketoconazole, NADPH and other chemicals were all purchased from Merck (Darnstadt, Germany). The purity of all chemicals met the standards of American Chemical Society, unless otherwise noted. Male human hepatic microsomes (pooled sample) (sample LOT: 3043885) were from Gentest Corp. (Woburn, MA, USA). Microsomes from livers of twelve human donors were obtained from Gentest Corp. (Woburn, MA, USA) (Lot. no. HG43-1, HG103, HG74, HG93, HG24, HG27, HG23, HG32, HK31, HK34, HG03 and HG42). Each human microsomal sample was characterized for CYP, FMO, total protein contents and specific CYP activities by Gentest Corp. and reanalyzed by us by assays described in the protocols of Gentest Corp. Our data were similar to those reported by Gentest Corp. (Table 1). Human recombinant enzymes were used in the forms of Supersomes™ and obtained from Corning (Corning, NY, USA). In Supersomes™, microsomal fractions were isolated from insect cells that were transfected with baculovirus constructs containing cDNA of human CYP enzymes (CYP1A1/2, 1B1, 2A6, 2B6, 2C8/9/18/19/, 2D6, 2E1, 3A4). The Supersomes™ also express NADPH:CYP oxidoreductase (POR). However, because they are microsomes (particles of broken endoplasmic reticulum), other enzymes (proteins) of the endoplasmic reticulum membrane (like NADH:cytochrome b5 reductase and cytochrome b5) are also expressed at basal levels in these Supersomes™. We also utilized Supersomes™, which overexpressed cytochrome b5, in a molar ratio of CYP to cytochrome b5 of 1 to 5. In Supersomes™, where cytochrome b5 was not overexpressed (see above), pure cytochrome b5 was added to reach a molar ratio of CYP to cytochrome b5 of 1 to 5. Reconstitution of Supersomes™ with purified cytochrome b5 was performed as described previously. Human recombinant FMOs and AO were also used in the forms of Supersomes™ (Gentest Corp., Woburn, MA, USA). These microsomal fractions were isolated from insect cells that are transfected with baculovirus constructs containing cDNA of human FMO1, FMO3, FMO5 or AO enzymes.
(§3) The reaction was initiated by adding NADPH. In control incubations, either microsomes or CYP (FMO, AO) or NADPH were omitted. […] The reaction was stopped by extraction with ethyl acetate (2 × 1 mL). […] Cabozantinib metabolites separated by HPLC were characterized by mass spectroscopy (see further details below).

[3] = tested on: human liver microsomes; assay: Correlation of CYP- and FMO-linked catalytic activities with amounts of cabozantinib metabolites formed in microsomes; format: in vitro ADME; conditions: twelve human microsomal samples; for Correlation coefficient (r) with CYP2C19 activity: (S)-Mephenytoin-4′-hydroxylase; for Correlation coefficient (r) with CYP2B6 activity: (S)-Mephenytoin-N-demethylase; for Correlation coefficient (r) with CYP2D6 activity: Buferalol-1′-hydroxylase; for Correlation coefficient (r) with CYP2E1 activity: Chlorzoxazone-6-hydroxylase; for Correlation coefficient (r) with CYP2A6 activity: Coumarine-7-hydroxylase; for Correlation coefficient (r) with CYP2C9 activity: Diclofenac-4′-hydroxylase; for Correlation coefficient (r) with CYP4A11 activity: Lauric acid-12-hydroxylase; for Correlation coefficient (r) with FMO activity: Methyl-p-tolyl sulfide oxidase; for Correlation coefficient (r) with CYP2C8 activity: Paclitaxel-6α-hydroxylase; for Correlation coefficient (r) with CYP1A2 activity: Phenacetin-O-deethylase; for Correlation coefficient (r) with Total CYPs: amount of metabolite formed vs total CYP content
Protocol: Data are expressed as mean ± SD. Data were analyzed using GraphPad Prism 7 (San Diego, CA, USA) using ANOVA with post-hoc Tukey HSD Test. All p-values are two-tailed and considered significant at the 0.05 level. […] Correlation coefficients (r) were based on a sample size of twelve for human microsomes. All p-values are two-tailed and considered significant at the 0.05 level.
To clarify these correlations, multivariate analysis was used to investigate the dependence of metabolite formation on these CYP activities. Activities of CYP2A6, -2B6 and -2C8 in each microsomal sample were combined in pairs with the activities of CYP3A4 to see if any combination of the activities led to an improvement in the correlation with CYP3A4.

[4] = biological target: T1, CYP3A4 + cyt b5 (Homo sapiens, UniProt P08684); assay: Cabozantinib oxidation by recombinant CYP3A4 in the presence of cyt b5 (Supersomes); format: in vitro ADME; conditions: for VMax: formation of the metabolite from cabozantinib by CYP3A4 + cyt b5
T1 construct: purchased Corning (Corning, NY, USA); host or cells: insect cells (baculovirus)
T1 sequence (P08684 whole entry): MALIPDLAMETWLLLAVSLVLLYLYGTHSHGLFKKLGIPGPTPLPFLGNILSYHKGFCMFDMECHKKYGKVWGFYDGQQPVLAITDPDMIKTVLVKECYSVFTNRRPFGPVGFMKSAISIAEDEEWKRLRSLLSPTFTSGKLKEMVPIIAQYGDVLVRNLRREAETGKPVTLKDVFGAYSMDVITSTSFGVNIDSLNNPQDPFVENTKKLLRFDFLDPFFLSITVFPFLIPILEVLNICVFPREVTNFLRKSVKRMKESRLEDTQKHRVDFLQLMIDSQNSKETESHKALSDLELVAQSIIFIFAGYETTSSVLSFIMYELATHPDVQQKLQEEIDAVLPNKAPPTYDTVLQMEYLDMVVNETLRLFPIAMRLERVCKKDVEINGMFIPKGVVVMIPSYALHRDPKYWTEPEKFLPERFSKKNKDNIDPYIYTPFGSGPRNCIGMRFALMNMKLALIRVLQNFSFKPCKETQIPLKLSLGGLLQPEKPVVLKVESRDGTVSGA
Text: as §2, §3

[5] = tested on: CYPs in human liver; assay: Contributions of CYP enzymes to formation of cabozantinib metabolites in human livers; format: in vitro ADME; conditions: calculated from velocities with cyt b5 and CYP expression levels in human liver
[6] = tested on: human liver microsomes; assay: Oxidation of cabozantinib by hepatic microsomes of individual human donors (HPLC of metabolites); format: in vitro ADME; conditions: 50 µM cabozantinib, 20 min; remark: listed apart in the source
[7] = biological target: CYP3A4 (Homo sapiens, UniProt P08684); assay: Kinetics of cabozantinib oxidation by recombinant CYP3A4 (Supersomes); format: in vitro ADME; parameters: purchased Corning (Corning, NY, USA); host or cells: insect cells (baculovirus); conditions: formation of the metabolite from cabozantinib by CYP3A4 without cyt b5
CYP3A4, sequence (P08684 whole entry): as above
Text: Cabozantinib was from MedChemExpress (Monmouth Junction, NJ, USA). Standard of cabozantinib N-oxide was purchased from Toronto Research Chemicals (Toronto, Canada). Ketoconazole, NADPH and other chemicals were all purchased from Merck (Darnstadt, Germany). The purity of all chemicals met the standards of American Chemical Society, unless otherwise noted. Male human hepatic microsomes (pooled sample) (sample LOT: 3043885) were from Gentest Corp. (Woburn, MA, USA). Microsomes from livers of twelve human donors were obtained from Gentest Corp. (Woburn, MA, USA) (Lot. no. HG43-1, HG103, HG74, HG93, HG24, HG27, HG23, HG32, HK31, HK34, HG03 and HG42). Each human microsomal sample was characterized for CYP, FMO, total protein contents and specific CYP activities by Gentest Corp. and reanalyzed by us by assays described in the protocols of Gentest Corp. Our data were similar to those reported by Gentest Corp. (Table 1). Human recombinant enzymes were used in the forms of Supersomes™ and obtained from Corning (Corning, NY, USA). In Supersomes™, microsomal fractions were isolated from insect cells that were transfected with baculovirus constructs containing cDNA of human CYP enzymes (CYP1A1/2, 1B1, 2A6, 2B6, 2C8/9/18/19/, 2D6, 2E1, 3A4). The Supersomes™ also express NADPH:CYP oxidoreductase (POR). […]

[8] = tested on: RET; conditions: estimated; cited from earlier work
[9] = tested on: MET; conditions: read-out: IC50 for MET; estimated; cited from earlier work
[10] = tested on: VEGFR2; conditions: read-out: IC50 for VEGFR2; estimated; cited from earlier work
[11] = biological target: CYP3A (cabozantinib oxidation: formation of cabozantinib N-oxide) (Homo sapiens, UniProt P08684); assay: Inhibition study: effect of CYP inhibitors on cabozantinib oxidation in pooled human liver microsomes; conditions: human
CYP3A (cabozantinib oxidation: formation of cabozantinib N-oxide), sequence (P08684 2-503): as the sequence (P08684 2-503) above
Protocol: as §1

[12] = biological target: CYP3A (cabozantinib oxidation: formation of desmethyl cabozantinib) (Homo sapiens, UniProt P08684); assay: as above; conditions: human
CYP3A (cabozantinib oxidation: formation of desmethyl cabozantinib), sequence (P08684 2-503): as above
Protocol: as §1

[13] = biological target: CYP3A (cabozantinib oxidation: formation of monohydroxy cabozantinib) (Homo sapiens, UniProt P08684); assay: as above; conditions: human
CYP3A (cabozantinib oxidation: formation of monohydroxy cabozantinib), sequence (P08684 2-503): as above
Protocol: as §1

[14] = human liver microsomes sample HG03
[15] = human liver microsomes sample HG24
[16] = human liver microsomes sample HG32
[17] = human liver microsomes sample HG42
[18] = human liver microsomes sample HG43
[19] = human liver microsomes sample HG74
[20] = human liver microsomes sample HG93
[21] = human liver microsomes sample HG103
[22] = human liver microsomes sample HK31
[23] = human liver microsomes sample HK34
[24] = human liver microsomes sample HK23
[25] = human liver microsomes sample HK27

| Amounts of cabozantinib metabolites [2, 14] | Amounts of cabozantinib metabolites [2, 15] | Amounts of cabozantinib metabolites [2, 16] | Amounts of cabozantinib metabolites [2, 17] | Amounts of cabozantinib metabolites [2, 18] | Amounts of cabozantinib metabolites [2, 19] | Amounts of cabozantinib metabolites [2, 20] | Amounts of cabozantinib metabolites [2, 21] | Amounts of cabozantinib metabolites [2, 22] | Amounts of cabozantinib metabolites [2, 23] | Correlation coefficient (r) with CYP2C19 activity [3] | Correlation coefficient (r) with CYP2B6 activity [3] | Correlation coefficient (r) with CYP2D6 activity [3] | Correlation coefficient (r) with CYP2E1 activity [3] | Correlation coefficient (r) with CYP2A6 activity [3] | Correlation coefficient (r) with CYP2C9 activity [3] | Correlation coefficient (r) with CYP4A11 activity [3] | Correlation coefficient (r) with FMO activity [3] | Correlation coefficient (r) with CYP2C8 activity [3] | Correlation coefficient (r) with CYP1A2 activity [3] | Structure (SMILES) | further results |
| --- | --- | --- | --- | --- | --- | --- | --- | --- | --- | --- | --- | --- | --- | --- | --- | --- | --- | --- | --- | --- | --- |
|  |  |  |  |  |  |  |  |  |  |  |  |  |  |  |  |  |  |  |  | Cc1ccc(-c2c(-c3nn(C)c4ncnc(N5CC[C@H](N6CCCCC6)C5)c34)cnn2C)cc1 [CYP3cide] | IC50 ([1]; read-out: IC50 for inhibition of formation of cabozantinib N-oxide): < 10 nM; IC50 ([1]; read-out: IC50 for inhibition of formation of desmethyl cabozantinib): < 10 nM; IC50 ([1]; read-out: IC50 for inhibition of formation of monohydroxy cabozantinib): 1120 nM |
| 0.335 peak area/incubation time | 0.149 peak area/incubation time | 0.185 peak area/incubation time | 0.329 peak area/incubation time | 0.625 peak area/incubation time | 0.256 peak area/incubation time | 0.371 peak area/incubation time | 0.144 peak area/incubation time | 0.377 peak area/incubation time | 0.305 peak area/incubation time | 0.033 | 0.695 * | −0.015 | 0.140 | 0.841 *** | 0.086 | 0.193 | 0.315 | 0.654 * | 0.280 | COc1cc2c(Oc3ccc(NC(=O)C4(C(=O)Nc5ccc(F)cc5)CC4)cc3)ccnc2cc1O [M2, desmethyl cabozantinib] | Correlation coefficient (r) with Total CYPs [3]: 0.794 **; VMax [4]: 5.70 ± 0.24 peak area/min/nmol CYP; Contribution of CYPs other than CYP3A4 to formation of the metabolite in human liver [5]: less than 1%; Amounts of cabozantinib metabolites [6, 24]: 0.130 peak area/incubation time; Amounts of cabozantinib metabolites [6, 25]: 0.467 peak area/incubation time; VMax [7]: 1.44 ± 0.03 peak area/min/nmol CYP |
| 1.672 peak area/incubation time | 0.752 peak area/incubation time | 1.338 peak area/incubation time | 1.609 peak area/incubation time | 3.491 peak area/incubation time | 1.106 peak area/incubation time | 1.935 peak area/incubation time | 0.644 peak area/incubation time | 1.537 peak area/incubation time | 1.359 peak area/incubation time | −0.021 | 0.776 ** | −0.043 | 0.030 | 0.728 ** | 0.130 | 0.223 | 0.341 | 0.737 ** | 0.216 | COc1cc2c(Oc3ccc(NC(=O)C4(C(=O)Nc5ccc(F)cc5)CC4)cc3)cc[n+]([O-])c2cc1OC [M3, cabozantinib N-oxide] | Correlation coefficient (r) with Total CYPs [3]: 0.811 **; Increase of oxidation / metabolite formation by co-expression of cyt b5 with CYP3A4 ([4]; Supersomes with cyt b5 vs without, 50 µM cabozantinib): 4.6 fold; VMax [4]: 9.96 ± 0.92 peak area/min/nmol CYP; Contribution of CYPs other than CYP3A4 to formation of the metabolite in human liver [5]: less than 1%; Amounts of cabozantinib metabolites [6, 24]: 0.607 peak area/incubation time; Amounts of cabozantinib metabolites [6, 25]: 2.228 peak area/incubation time; IC50 [8]: > 1000 nM; IC50 [9]: 190 nM; IC50 [10]: 140 nM; VMax [7]: 1.54 ± 0.04 peak area/min/nmol CYP |
|  |  |  |  |  |  |  |  |  |  |  |  |  |  |  |  |  |  |  |  | CC(=O)N1CCN(c2ccc(OCC3COC(Cn4ccnc4)(c4ccc(Cl)cc4Cl)O3)cc2)CC1 (centres unmarked) [ketoconazole] | IC50 at 20 min [11]: < 10 nM; IC50 at 20 min [12]: < 10 nM; IC50 at 20 min [13]: < 10 nM |
